Measurements: patent publication US6004960A, “Pyridazinones as inhibitors of cyclooxygenase-2” (Merck Frosst Canada, Inc., priority 1998, dated 1999)

Assays:
COX-1 [1] = target: T1, COX-1 (Homo sapiens, UniProt P23219); assay: Human whole blood assay, COX-1 (clotting-induced TxB2 production); format: cell-based; set-up: platelets in whole blood contain a large amount of the COX-1 enzyme; from tissue; host or cells: fresh human whole blood (platelets), allowed to clot; conditions: clotting-induced TxB2, 1 hour at 37° C, read-out: COX-1 (IC50 μM) HWB
T1 sequence (P23219 24-599): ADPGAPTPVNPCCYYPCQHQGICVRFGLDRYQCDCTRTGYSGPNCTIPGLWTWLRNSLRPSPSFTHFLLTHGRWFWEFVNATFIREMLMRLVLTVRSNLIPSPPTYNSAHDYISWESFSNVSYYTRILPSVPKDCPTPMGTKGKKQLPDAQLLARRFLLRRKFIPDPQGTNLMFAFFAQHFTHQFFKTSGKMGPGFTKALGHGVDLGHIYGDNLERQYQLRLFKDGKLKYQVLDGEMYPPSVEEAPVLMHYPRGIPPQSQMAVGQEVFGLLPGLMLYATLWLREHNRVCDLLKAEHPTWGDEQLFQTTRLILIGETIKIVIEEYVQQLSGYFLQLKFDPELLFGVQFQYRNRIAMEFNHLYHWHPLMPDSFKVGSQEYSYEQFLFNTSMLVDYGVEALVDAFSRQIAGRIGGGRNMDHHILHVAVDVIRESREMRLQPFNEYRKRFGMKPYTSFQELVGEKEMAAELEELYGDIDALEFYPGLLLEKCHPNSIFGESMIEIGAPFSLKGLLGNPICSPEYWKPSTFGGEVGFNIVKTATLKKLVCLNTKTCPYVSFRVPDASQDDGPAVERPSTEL
Method: Human whole blood provides a protein and cell-rich milieu appropriate for the study of biochemical efficacy of anti-inflammatory compounds such as selective COX-2 inhibitors. […] This is consistent with the observation that COX-2 inhibitors have no effect on PGE2 production in normal blood. These inhibitors are active only after incubation of human whole blood with LPS, which induces COX-2. This assay can be used to evaluate the inhibitory effect of selective COX-2 inhibitors on PGE2 production. As well, platelets in whole blood contain a large amount of the COX-1 enzyme. Immediately following blood clotting, platelets are activated through a thrombin-mediated mechanism. This reaction results in the production of thromboxane B2 (TxB2) via activation of COX-1. Thus, the effect of test compounds on TxB2 levels following blood clotting can be examined and used as an index for COX-1 activity. Therefore, the degree of selectivity by the test compound can be determined by measuring the levels of PGE2 after LPS induction (COX-2) and […] following blood clotting (COX-1) in the same assay.
B. COX-1 (Clotting-induced TxB2 production)
Fresh blood is collected into vacutainers containing no anticoagulants. […] The tubes are vortexed and incubated at 37° C. for 1 hour to allow blood to clot. At the end of incubation, serum is obtained by centrifugation (12,000×g for 5 min.). A 100 μL aliquot of serum is mixed with 400 μL of methanol for protein precipitation. The supernatant is obtained and is assayed for T×B2 using a enzyme immunoassay kit (Cayman, #519031) according to the manufacturer's instruction.

COX-1 [2] = target: T1, COX-1; assay: Assay of COX-1 activity from U937 cell microsomes; format: biochemical; set-up: Assay of COX-1 Activity from U937 cell microsomes; endogenous in cells; host or cells: U937 cells, 100,000×g microsomal pellet; conditions: PGE2, read-out: COX-1 (IC50 μM) U-937
Method: Assay of COX-1 Activity from U937 cell microsomes
U 937 cells are pelleted by centrifugation at 500×g for 5 min and washed once with phosphate-buffered saline and repelleted. […] The cell suspension is sonicated 4 times for 10 sec and is centrifuged at 10,000×g for 10 min at 4° C. The supernatant is centrifuged at 100,000×g for 1 hr at 4° C. The 100,000×g microsomal pellet is resuspended in 0.1 M Tris-HCl, pH 7.4, 10 mM EDTA to approximately 7 mg protein/ml and stored at -80° C.
Microsomal preparations are thawed immediately prior to use, subjected to a brief sonication, and then diluted to a protein concentration of 125 μg/ml in 0.1 M Tris-HCl buffer, pH 7.4 containing 10 mM EDTA, 0.5 mM phenol, 1 mM reduced glutathione and 1 μM hematin. Assays are performed in duplicate in a final volume of 250 pl. Initially, 5 µl of DMSO vehicle or drug in DMSO are added to 20 μl of 0.1 M Tris-HCl buffer, pH 7.4 containing 10 mM EDTA in wells of a 96-deepwell polypropylene titre plate. 200 μl of the microsomal preparation are then added and pre-incubated for 15 min at room temperature before addition of 25 μl of […] in 0.1 M Tris-HCl and 10 mM EDTA, pH 7.4. Samples are incubated for 40 min at room temperature and the reaction is stopped by the addition of 25 pl of 1 N HCl. Samples are neutralized with 25 μl of 1 N NaOH prior to quantitation of PGE2 content by radioimmunoassay (Dupont-NEN or Amersham assay kits). Cyclooxygenase activity is defined as the difference between PGE2 levels in samples incubated in the presence of arachidonic acid and ethanol vehicle.
(§1) In the assay, inhibition is determined by measuring the amount of prostaglandin E2 (PGE2) synthesized in the presence of arachidonic acid, cyclooxygenase-I or cyclooxygenase-2 and a putative inhibitor.

COX-2 [3] = target: T2, COX-2 (Homo sapiens, UniProt P35354); assay: Human whole blood assay, COX-2 (LPS-induced PGE2 production); format: cell-based; set-up: incubation of human whole blood with LPS, which induces COX-2; from tissue; host or cells: fresh human whole blood (volunteers), incubated with LPS; conditions: LPS-induced PGE2, 24 hours at 37° C, read-out: COX-2 (IC50 μM) HWB
T2 sequence (P35354 18-604): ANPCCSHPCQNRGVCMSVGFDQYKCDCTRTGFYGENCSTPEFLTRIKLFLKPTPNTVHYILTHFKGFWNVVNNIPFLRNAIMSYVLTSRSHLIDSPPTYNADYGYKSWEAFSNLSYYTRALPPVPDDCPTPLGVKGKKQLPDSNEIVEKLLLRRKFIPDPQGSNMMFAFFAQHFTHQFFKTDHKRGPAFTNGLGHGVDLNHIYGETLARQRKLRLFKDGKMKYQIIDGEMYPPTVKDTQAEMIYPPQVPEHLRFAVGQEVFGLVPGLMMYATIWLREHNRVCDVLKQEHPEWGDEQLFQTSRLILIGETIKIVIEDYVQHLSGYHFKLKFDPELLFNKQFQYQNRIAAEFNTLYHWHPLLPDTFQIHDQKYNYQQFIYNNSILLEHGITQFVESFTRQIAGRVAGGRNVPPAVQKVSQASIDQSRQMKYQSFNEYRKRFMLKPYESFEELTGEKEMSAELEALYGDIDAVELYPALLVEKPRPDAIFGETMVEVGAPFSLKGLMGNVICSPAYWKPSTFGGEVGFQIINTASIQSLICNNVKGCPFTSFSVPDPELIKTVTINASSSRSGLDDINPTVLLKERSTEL
Excerpt: As well, platelets in whole blood contain a large amount of the COX-1 enzyme. Immediately following blood clotting, platelets are activated through a thrombin-mediated mechanism. This reaction results in the production of thromboxane B2 (TxB2) via activation of COX-1. Thus, the effect of test compounds on TxB2 levels following blood clotting can be examined and used as an index for COX-1 activity. Therefore, the degree of selectivity by the test compound can be determined by measuring the levels of PGE2 after LPS induction (COX-2) and […] following blood clotting (COX-1) in the same assay.
A. COX-2 (LPS-induced PGE2 production)
Fresh blood is collected in heparinized tubes by venipuncture from both male and female volunteers. The subjects have no apparent inflammatory conditions and have not taken any NSAIDs for at least 7 days prior to blood collection. Plasma is immediately obtained from a 2mL blood aliquot to use as blank (basal levels of PGE2). The remaining blood is incubated with LPS (100 μg/ml final concentration, Sigma Chem, #L-2630 from E. coli; diluted in 0.1% BSA (Phosphate buffered saline) for 5 minutes at room temperature. Five hundred μL aliquots of blood are incubated with either 2μL of vehicle (DMSO) or 2 μL of a test compound at final concentrations varying from 10nM to 30 μM for 24 hours at 37° C. At the end of the incubation, the blood is centrifuged at 12,000×g for 5 minutes to obtain plasma. A 100 μL aliquot of plasma is mixed with 400 μL of methanol for protein precipitation. The supernatant is obtained and is assayed for PGE2 using a radioimmunoassay kit (Amersham, RPA#530) after conversion of PGE2 to its methyl oximate derivative according to the manufacturer's procedure. […]

COX-2 [4] = target: T2, COX-2; assay: Whole cell assay for COX-2 using CHO transfected cell line (CHO [hCOX-2]), PGE2; format: cell-based; set-up: expressed in transfected cells; host or cells: CHO (Chinese hamster ovary), stably transfected with pCDNAIII vector; CHO [hCOX-2]; conditions: CHO [hCOX-2] cells, 10 μM AA
Method: Chinese hamster ovary (CHO) cell lines which have been stably transfected with an eukaryotic expression vector pCDNAIII containing either the human COX-1 or COX-2 cDNA's are used for the assay. These cell lines are referred to as CHO [hCOX-1] and CHO [hCOX-2], respectively. […] Drugs to be tested are dissolved in DMSO to 66.7-fold the highest test drug concentration. […] Cells (0.3×10^6 cells in 200 p) are preincubated with 3 AIl of the test drug or DMSO vehicle for 15 min at 37° C. […] Cells are then challenged in the presence or absence of drug with the AA/HBSS solution to yield a final concentration of 0.5 μM AA in the CHOhCOX-1] assay and a final concentration of 10 μM AA in the CHO [hCOX-2] assay. […] The samples are centrifuged at 300×g at 4° C. for 10 min, and an aliquot of the clarified supernatant is appropriately diluted for the determination of PGE2 levels using an enzyme-liked immunoassay for PGE2 (Correlate PGE2 enzyme immunoassay kit, Assay Designs, Inc.). Cyclooxygenase activity in the absence of test compounds is determined as the difference in PGE2 levels of cells challenged with arachidonic acid versus the PGE2 levels in cells mock-challenged with ethanol vehicle. Inhibition of PGE2 synthesis by test compounds is calculated as a percentage of the activity in the presence of drug versus the activity in the positive control samples.
as §1

Compound	IC50 (COX-1 [1])	IC50 (COX-1 [2])	IC50 (COX-2 [3])	IC50 (COX-2 [4])
CC(C)Oc1c(-c2ccc(S(C)(=O)=O)cc2)cnn(Cc2ccccc2)c1=O [Example 21, 2-Benzyl-4-(2-propoxy)-5-(4-methylsulfonyl)phenyl-2H-pyridazin-3-one]	> 100 µM			
CS(=O)(=O)c1ccc(-c2cnn(Cc3ccccc3)c(=O)c2Oc2ccc(F)cc2)cc1 [Example 22, 2-Benzyl-4-(4-fluorophenoxy)-5-(4-methylsulfonyl)phenyl-2H-pyridazin-3-one]	9 µM	0.3 to 1 µM		
CS(=O)(=O)c1ccc(-c2cnn(CC3CCC3)c(=O)c2-c2ccc(F)cc2)cc1 [Example 32, 2-Cyclobutylmethyl-4-(4-fluorophenyl)-5-(4-methylsulfonyl)phenyl-2H-pyridazin-3-one]		~10 µM	0.56 µM	0.029 µM
